What all share (experiment): relative viability (nuclei count vs DMSO), 5 days (fraction); higher = more cells survive
Compound in the experiment “Carfilzomib + Olaparib”: CC(C)C[C@H](NC(=O)[C@H](CCc1ccccc1)NC(=O)CN1CCOCC1)C(=O)N[C@@H](Cc1ccccc1)C(=O)N[C@@H](CC(C)C)C(=O)[C@@]1(C)CO1 [Carfilzomib] + O=C(c1cc(Cc2n[nH]c(=O)c3ccccc23)ccc1F)N1CCN(C(=O)C2CC2)CC1 [Olaparib] (partner 8 µM)
A digest of the protocol:
(§1)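 Values are medians from duplicate plates. Each reflects relative viability, defined as the nuclei count of treated wells over that of vehicle wells. Lung cancer cell lines in 1536-well plates were pin-tool dosed one day after seeding with one drug alone or with a fixed anchor-drug dose plus five library-drug doses (not always all listed) in √10 steps, then fixed, stained and imaged at 4× after 5 days.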

Compound in the experiment “Olaparib + Bortezomib”: O=C(c1cc(Cc2n[nH]c(=O)c3ccccc23)ccc1F)N1CCN(C(=O)C2CC2)CC1 [Olaparib] + CC(C)C[C@H](NC(=O)[C@H](Cc1ccccc1)NC(=O)c1cnccn1)B(O)O [Bortezomib] (partner 0.002 µM)
Put shortly: as §1

Compound in the experiment “Carfilzomib + Crizotinib”: CC(C)C[C@H](NC(=O)[C@H](CCc1ccccc1)NC(=O)CN1CCOCC1)C(=O)N[C@@H](Cc1ccccc1)C(=O)N[C@@H](CC(C)C)C(=O)[C@@]1(C)CO1 [Carfilzomib] + C[C@@H](Oc1cc(-c2cnn(C3CCNCC3)c2)cnc1N)c1c(Cl)ccc(F)c1Cl [Crizotinib] (partner 1 µM)
Put shortly: as §1

Compound in the experiment “Olaparib + Dasatinib”: O=C(c1cc(Cc2n[nH]c(=O)c3ccccc23)ccc1F)N1CCN(C(=O)C2CC2)CC1 [Olaparib] + Cc1nc(Nc2ncc(C(=O)Nc3c(C)cccc3Cl)s2)cc(N2CCN(CCO)CC2)n1 [Dasatinib] (partner 0.075 µM)
Put shortly: as §1

In the case of NCI-H2347, the relative viability in the experiment with Carfilzomib + Olaparib (first compound 0.001 µM) amounted to 0.502; with Carfilzomib + Olaparib (first compound 0.003162 µM), 0.587; in the experiment with Carfilzomib + Olaparib (first compound 0.01 µM), 0.564; with Carfilzomib + Olaparib (first compound 0.03162 µM) it was 0.503; with Carfilzomib + Olaparib (first compound 0.1 µM), 0.363; with Olaparib + Bortezomib (first compound 0.08 µM), 1.28. In addition, the relative viability in the experiment with Olaparib + Bortezomib (first compound 0.253 µM) came to 0.715; with Olaparib + Bortezomib (first compound 2.53 µM) it was 0.974; with Olaparib + Bortezomib (first compound 8 µM), 0.676; with Carfilzomib + Crizotinib (first compound 0.001 µM) it was 0.798; with Carfilzomib + Crizotinib (first compound 0.003162 µM), 0.756; with Carfilzomib + Crizotinib (first compound 0.01 µM), 0.596. Besides, the relative viability with Carfilzomib + Crizotinib (first compound 0.03162 µM) was determined as 0.449; with Carfilzomib + Crizotinib (first compound 0.1 µM) it was 0.35; with Olaparib + Dasatinib (first compound 0.08 µM), 0.335; with Olaparib + Dasatinib (first compound 0.253 µM) it was 0.292; in the experiment with Olaparib + Dasatinib (first compound 2.53 µM), 0.293; with Olaparib + Dasatinib (first compound 8 µM) it was 0.294.
For the cell line HCC-78, the relative viability with Carfilzomib + Olaparib (first compound 0.001 µM) amounted to 0.733; with Carfilzomib + Olaparib (first compound 0.003162 µM) it was 0.881; with Carfilzomib + Olaparib (first compound 0.01 µM), 0.844; in the experiment with Carfilzomib + Olaparib (first compound 0.03162 µM), 0.552; with Carfilzomib + Olaparib (first compound 0.1 µM), 0.233; in the experiment with Olaparib + Bortezomib (first compound 0.08 µM) it was 0.489. Moreover, the relative viability with Olaparib + Bortezomib (first compound 0.253 µM) was 0.545; with Olaparib + Bortezomib (first compound 2.53 µM), 0.496; with Olaparib + Bortezomib (first compound 8 µM), 0.537; with Carfilzomib + Crizotinib (first compound 0.001 µM) it was 0.323; in the experiment with Carfilzomib + Crizotinib (first compound 0.003162 µM), 0.383; with Carfilzomib + Crizotinib (first compound 0.01 µM) it was 0.351. In addition, the relative viability was 0.345 with Carfilzomib + Crizotinib (first compound 0.03162 µM); 0.144 with Carfilzomib + Crizotinib (first compound 0.1 µM); 0.451 with Olaparib + Dasatinib (first compound 0.08 µM); 0.31 in the experiment with Olaparib + Dasatinib (first compound 0.253 µM); 0.426 with Olaparib + Dasatinib (first compound 2.53 µM); 0.331 with Olaparib + Dasatinib (first compound 8 µM).
NCI-H1650: the relative viability with Carfilzomib + Olaparib (first compound 0.001 µM) is 0.811; with Carfilzomib + Olaparib (first compound 0.003162 µM), 0.855; in the experiment with Carfilzomib + Olaparib (first compound 0.01 µM), 0.723; in the experiment with Carfilzomib + Olaparib (first compound 0.03162 µM), 0.111; with Carfilzomib + Olaparib (first compound 0.1 µM), 0.137; in the experiment with Olaparib + Bortezomib (first compound 0.08 µM), 0.265. For the same cell line, the relative viability with Olaparib + Bortezomib (first compound 0.253 µM) worked out at 0.196; with Olaparib + Bortezomib (first compound 2.53 µM), 0.232; in the experiment with Olaparib + Bortezomib (first compound 8 µM), 0.197; with Carfilzomib + Crizotinib (first compound 0.003162 µM) it was 0.839; with Carfilzomib + Crizotinib (first compound 0.01 µM), 0.642; with Carfilzomib + Crizotinib (first compound 0.03162 µM), 0.114. The relative viability in the experiment with Carfilzomib + Crizotinib (first compound 0.1 µM) was found to be 0.139; in the experiment with Olaparib + Dasatinib (first compound 0.08 µM), 0.313; with Olaparib + Dasatinib (first compound 0.253 µM), 0.342; with Olaparib + Dasatinib (first compound 2.53 µM), 0.287; with Olaparib + Dasatinib (first compound 8 µM), 0.285.
As for COR-L23, the relative viability in the experiment with Carfilzomib + Olaparib (first compound 0.001 µM) was found to be 0.392; with Carfilzomib + Olaparib (first compound 0.003162 µM) it was 0.435; with Carfilzomib + Olaparib (first compound 0.01 µM), 0.36; with Carfilzomib + Olaparib (first compound 0.03162 µM), 0.0646; in the experiment with Carfilzomib + Olaparib (first compound 0.1 µM), 0.0712; in the experiment with Olaparib + Bortezomib (first compound 0.08 µM), 1.06. For the same cell line, the relative viability amounted to 0.862 with Olaparib + Bortezomib (first compound 0.253 µM); 0.92 in the experiment with Olaparib + Bortezomib (first compound 2.53 µM); 0.474 in the experiment with Olaparib + Bortezomib (first compound 8 µM); 0.71 with Carfilzomib + Crizotinib (first compound 0.001 µM); 0.828 in the experiment with Carfilzomib + Crizotinib (first compound 0.003162 µM); 0.731 with Carfilzomib + Crizotinib (first compound 0.01 µM). For the same cell line, the relative viability with Carfilzomib + Crizotinib (first compound 0.03162 µM) worked out at 0.0647; with Carfilzomib + Crizotinib (first compound 0.1 µM), 0.0659; with Olaparib + Dasatinib (first compound 0.08 µM), 0.539; in the experiment with Olaparib + Dasatinib (first compound 0.253 µM), 0.437; with Olaparib + Dasatinib (first compound 2.53 µM), 0.314; with Olaparib + Dasatinib (first compound 8 µM) it was 0.23.
As to NCI-H322M, the relative viability with Carfilzomib + Olaparib (first compound 0.001 µM) came out at 0.748; with Carfilzomib + Olaparib (first compound 0.003162 µM) it was 0.681; with Carfilzomib + Olaparib (first compound 0.01 µM) it was 0.771; with Carfilzomib + Olaparib (first compound 0.03162 µM), 0.798; with Carfilzomib + Olaparib (first compound 0.1 µM) it was 0.439; with Olaparib + Bortezomib (first compound 0.08 µM), 1.27. Also, the relative viability with Olaparib + Bortezomib (first compound 0.253 µM) turned out to be 1.19; with Olaparib + Bortezomib (first compound 2.53 µM), 1.2; with Olaparib + Bortezomib (first compound 8 µM), 1.24; with Carfilzomib + Crizotinib (first compound 0.001 µM) it was 0.935; in the experiment with Carfilzomib + Crizotinib (first compound 0.003162 µM) it was 0.864; in the experiment with Carfilzomib + Crizotinib (first compound 0.01 µM), 0.938. Moreover, the relative viability stood at 0.795 in the experiment with Carfilzomib + Crizotinib (first compound 0.03162 µM); 0.252 in the experiment with Carfilzomib + Crizotinib (first compound 0.1 µM); 0.251 in the experiment with Olaparib + Dasatinib (first compound 0.08 µM); 0.231 with Olaparib + Dasatinib (first compound 0.253 µM); 0.248 with Olaparib + Dasatinib (first compound 2.53 µM); 0.252 in the experiment with Olaparib + Dasatinib (first compound 8 µM).
As to NCI-H2085, the relative viability in the experiment with Carfilzomib + Olaparib (first compound 0.001 µM) came to 0.771; with Carfilzomib + Olaparib (first compound 0.003162 µM) it was 0.739; with Carfilzomib + Olaparib (first compound 0.01 µM), 0.749; with Carfilzomib + Olaparib (first compound 0.03162 µM), 0.372; with Carfilzomib + Olaparib (first compound 0.1 µM) it was 0.244; with Olaparib + Bortezomib (first compound 0.08 µM), 1.25. For the same cell line, the relative viability with Olaparib + Bortezomib (first compound 0.253 µM) worked out at 0.92; with Olaparib + Bortezomib (first compound 2.53 µM), 0.981; in the experiment with Olaparib + Bortezomib (first compound 8 µM), 0.808; in the experiment with Carfilzomib + Crizotinib (first compound 0.001 µM), 0.83; with Carfilzomib + Crizotinib (first compound 0.003162 µM), 0.769; in the experiment with Carfilzomib + Crizotinib (first compound 0.01 µM) it was 0.662. The relative viability was 0.368 with Carfilzomib + Crizotinib (first compound 0.03162 µM); 0.225 with Carfilzomib + Crizotinib (first compound 0.1 µM); 0.292 with Olaparib + Dasatinib (first compound 0.08 µM); 0.225 with Olaparib + Dasatinib (first compound 0.253 µM); 0.241 with Olaparib + Dasatinib (first compound 2.53 µM); 0.226 with Olaparib + Dasatinib (first compound 8 µM).
Turning to NCI-H2023, the relative viability is 0.484 in the experiment with Carfilzomib + Olaparib (first compound 0.001 µM); 0.521 with Carfilzomib + Olaparib (first compound 0.003162 µM); 0.486 in the experiment with Carfilzomib + Olaparib (first compound 0.01 µM); 0.133 with Carfilzomib + Olaparib (first compound 0.03162 µM); 0.0615 with Carfilzomib + Olaparib (first compound 0.1 µM); 1.13 with Olaparib + Bortezomib (first compound 0.08 µM). Also, the relative viability came to 0.884 in the experiment with Olaparib + Bortezomib (first compound 0.253 µM); 0.931 in the experiment with Olaparib + Bortezomib (first compound 2.53 µM); 0.675 with Olaparib + Bortezomib (first compound 8 µM); 0.666 with Carfilzomib + Crizotinib (first compound 0.001 µM); 0.64 in the experiment with Carfilzomib + Crizotinib (first compound 0.003162 µM); 0.733 in the experiment with Carfilzomib + Crizotinib (first compound 0.01 µM). The relative viability in the experiment with Carfilzomib + Crizotinib (first compound 0.03162 µM) amounted to 0.375; with Carfilzomib + Crizotinib (first compound 0.1 µM) it was 0.0656; in the experiment with Olaparib + Dasatinib (first compound 0.08 µM), 0.672; in the experiment with Olaparib + Dasatinib (first compound 0.253 µM), 0.489; with Olaparib + Dasatinib (first compound 2.53 µM), 0.528; with Olaparib + Dasatinib (first compound 8 µM) it was 0.467.

These data come from the supplement of paper PMC10307832.
